Columns and labels:
[1] = Loss of myrcene during lyophilization for 24 h (weighing); format: physicochemical; conditions: lyophilized for 24 h; starting weight 8 or 48 mg
Protocol: To investigate whether myrcene is lost during lyophilization, 3 samples of either free myrcene, a mixture of myrcene and water, or a mixture of myrcene, water and PLGA were prepared in duplicate as illustrated in Table 16. Samples were lyophilized for 24 h. The vials containing the samples were weighed before and after lyophilization to calculate the weight of the dried sample.

[2] = cited from earlier work
[3] = biological target: TRPV1 (Homo sapiens, UniProt Q8NER1); conditions: described in PCT/US2018/033956; cited from earlier work
Sequence of TRPV1 (Q8NER1 whole entry, species assumed): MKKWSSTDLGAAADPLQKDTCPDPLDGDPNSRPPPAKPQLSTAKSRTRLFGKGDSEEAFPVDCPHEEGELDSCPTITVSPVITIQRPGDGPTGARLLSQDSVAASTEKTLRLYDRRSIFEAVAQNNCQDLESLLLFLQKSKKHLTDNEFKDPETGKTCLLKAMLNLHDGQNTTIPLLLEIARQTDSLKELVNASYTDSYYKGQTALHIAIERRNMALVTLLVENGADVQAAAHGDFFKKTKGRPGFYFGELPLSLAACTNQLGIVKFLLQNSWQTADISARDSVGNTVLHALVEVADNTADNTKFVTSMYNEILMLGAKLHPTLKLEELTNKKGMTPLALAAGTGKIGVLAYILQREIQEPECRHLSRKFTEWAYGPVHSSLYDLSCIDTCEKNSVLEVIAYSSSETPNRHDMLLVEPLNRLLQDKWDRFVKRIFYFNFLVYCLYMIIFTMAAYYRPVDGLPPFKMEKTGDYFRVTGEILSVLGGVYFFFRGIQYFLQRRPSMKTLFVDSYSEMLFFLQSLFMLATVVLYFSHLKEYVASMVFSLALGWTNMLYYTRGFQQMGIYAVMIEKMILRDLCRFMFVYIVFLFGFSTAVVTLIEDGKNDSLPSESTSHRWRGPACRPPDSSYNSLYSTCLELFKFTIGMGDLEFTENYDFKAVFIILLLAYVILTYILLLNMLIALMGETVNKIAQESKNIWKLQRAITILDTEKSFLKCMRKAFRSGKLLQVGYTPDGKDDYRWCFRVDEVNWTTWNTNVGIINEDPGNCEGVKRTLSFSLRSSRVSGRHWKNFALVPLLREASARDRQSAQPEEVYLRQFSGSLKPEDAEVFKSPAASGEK

[4] = biological target: T1, TRPV1 receptors (Rattus norvegicus, UniProt O35433); test: Calcium signaling assay (Fluo-4) in HEK TRPV1 cells; format: cell-based; conditions: 40 μg/ml, 1 h
T1 construct: expressed in transfected cells; host or cells: HEK TRPV1 cells (Helen Turner lab, Chaminade University of Honolulu), kept under geneticin
T1 sequence (O35433 whole entry): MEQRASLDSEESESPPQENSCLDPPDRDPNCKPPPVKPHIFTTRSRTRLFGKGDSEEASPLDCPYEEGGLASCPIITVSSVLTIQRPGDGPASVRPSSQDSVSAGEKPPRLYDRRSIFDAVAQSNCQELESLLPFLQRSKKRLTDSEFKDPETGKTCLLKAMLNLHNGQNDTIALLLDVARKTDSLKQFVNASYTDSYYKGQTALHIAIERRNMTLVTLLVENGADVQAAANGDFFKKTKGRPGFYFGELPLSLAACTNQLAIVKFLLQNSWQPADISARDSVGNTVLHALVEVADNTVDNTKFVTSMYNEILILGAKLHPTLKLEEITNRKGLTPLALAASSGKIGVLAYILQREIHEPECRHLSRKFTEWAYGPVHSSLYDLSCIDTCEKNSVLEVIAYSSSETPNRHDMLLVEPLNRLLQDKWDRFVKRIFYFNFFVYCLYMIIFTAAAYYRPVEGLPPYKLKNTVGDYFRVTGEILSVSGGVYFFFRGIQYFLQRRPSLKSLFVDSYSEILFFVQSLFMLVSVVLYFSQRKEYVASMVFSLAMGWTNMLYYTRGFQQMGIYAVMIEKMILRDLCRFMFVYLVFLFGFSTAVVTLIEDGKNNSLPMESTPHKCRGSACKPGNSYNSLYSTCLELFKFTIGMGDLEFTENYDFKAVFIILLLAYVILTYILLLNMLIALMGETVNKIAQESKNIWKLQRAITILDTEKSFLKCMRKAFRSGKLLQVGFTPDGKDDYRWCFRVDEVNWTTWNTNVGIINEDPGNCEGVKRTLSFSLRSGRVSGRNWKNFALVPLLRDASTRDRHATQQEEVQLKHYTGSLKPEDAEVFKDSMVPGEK
Protocol: HEK TRPV1 cells were provided by the Helen Turner lab at Chaminade University of Honolulu and maintained in MEM essential medium supplemented with 10% FBS, 50 units/ml-50 μg/ml Penicillin-Streptomycin, and 0.6 mg/ml geneticin.
HEK TRPV1 cells were harvested with trypsin, deactivated with media, and counted. Cells were centrifuged at 1000 rpm, for 5 min, at room temperature. Cells were washed twice with 1 mM Ca Assay Buffer (Na Ringers [140 mM NaCl, 2.8 mM KCl, 2 mM MgCl2, 11 mM glucose, 10 mM HEPES], 2 mM Probenecid, 1 mM CaCl2); pH 7.4), and collected by centrifugation at 1000 rpm, for 5 min, at room temperature. Cells were resuspended in 1 μM Fluo-4 (1 μl of 5 mM Fluo-4, mixed with 1 μl of 20% Pluronic F-127 in DMSO, then 5 ml of 1 mM Ca Assay Buffer was added and the mixture incubated at 37° C. for 10 min in the dark), and incubated for 30 min at 37° C. in the dark. Cells were then washed twice with 1 mM Ca assay buffer, then resuspended in the assay buffer and pipetted to opaque-walled 96-well plates at a density of 150,000 cells/180 μl/well. Fluorescence was measured using a plate reader (Synergy HTX, BioTek, USA), at an excitation wavelength of 485 nm and an emission wavelength of 528 nm. Once a baseline was established (3 measurements), 20 μl of the stimulant (free terpenoids, terpenoids-loaded NPs, and controls) solution was added to each well and measurement was continued for 1 h with one read every 40 seconds.
All solutions were prepared in 1 mM Ca Assay Buffer. Free terpenoids were first dissolved in DMSO, then a specific volume was diluted with the assay buffer to produce the required concentration. […]
A calcium signaling assay was utilized to evaluate the ion influx into HEK TRPV1 cells. Cells were dispersed in 1 mM calcium assay buffer and the intracellular calcium levels were measured using a plate reader in the presence of Fluo-4, as the fluorophore. […] Fluorescence changes in response to the free terpenoids, encapsulated terpenoids, and combinations of free and encapsulated terpenoids were detected and compared.

Calcium response (fluorescence change), non-encapsulated individual terpenoids [4]	Compound	Weight after lyophilization [1] [mg]	Vapor pressure ([2]; at 25° C.) [mm Hg]	Solubility in water [2]	TRPV1 agonist activity [3]
–	C=CC(=C)CCC=C(C)C [Formula F42]	0.88	–	–	–
induced a calcium response	C=CC(C)(O)CCC=C(C)CCC=C(C)C (stereo not shown) [nerolidol, 3,7,11-Trimethyl-1,6,10-dodecatrien-3-ol]	–	–	–	–
lowest calcium responses	C=C1CC/C=C(\C)CC[C@@H]2[C@@H]1CC2(C)C [β-caryophyllene, (1R,4E,9S)-4,11,11-Trimethyl-8-methylidenebicyclo[7.2.0]undec-4-ene]	–	–	–	–

Compound	Calcium response (fluorescence change), non-encapsulated individual terpenoids [4]	Weight after lyophilization [1] [mg]	Vapor pressure ([2]; at 25° C.) [mm Hg]	Solubility in water [2]	TRPV1 agonist activity [3]
C=CC(=C)CCC=C(C)C [myrcene, 7-methyl-3-methylideneocta-1,6-diene]	most intense response	–	2.09	not soluble in water	TRPV1 agonist that causes TRPV1 desensitization after prolonged exposure

From patent publication US20260115144A1, “THERAPEUTIC NANOPARTICLES ENCAPSULATING TERPENOIDS AND/OR CANNABINOIDS” (priority 2018, published 2026)
